Measurements: patent US5500430A, “Amidic derivatives of glutamic, aspartic and 2-amino adipic acids, a process for preparing same, and anti-gastrin composition containing the derivatives” (Rotta Research Laboratorium S.p.A., priority 1990, dated 1996)

Columns and labels:
[1] = Acute intravenous toxicity in rats (LD50); details: rat, in vivo
Description: The activity of these compounds against gastric secretion is linked specifically to their antigastrin activity.

[2] = test system: guinea-pig gall bladder contracted with CCK-8; experiment: Anticholecystokinin (anti-CCK) activity on guinea-pig gall bladders stimulated by CCK-8 in vitro; details: CCK-8 concentration 10 ng/ml, Krebs, 32° C.
Procedure: Anticholecystokinin (anti-cc, K) activity
In order to confirm the hypothesis that the molecular conformations of the compounds of the invention are suitable to provide them with antagonistic activity towards CCK as well as towards gastrin, the anticontracturant activities of some of the compounds of the invention were tested on guinea-pig gall bladders stimulated by CCK-8 in vitro.
A longitudinal strip of guinea-pig gall bladder was placed in a bath for isolated organs in the presence of Krebs at a temperature of 32° C. and oxygenated continuously with an oxygen-CO2 mixture (95-5 V/V).
The isometric contractions were detected by means of a force transducer and recorded.
The gall bladder was contracted with the use of a concentration of 10 ng/ml of CCK-8; the antagonistic activities of the compounds towards the contracturant effect of the CCK was determined with the use of different concentrations, thus determining the IC50 values, that is, the concentration of the compound in mcg/ml which can antagonise the contracturant effect of CCK by 50%.

fundic mucosa = experiment: Fundic mucosa hyperplasia induced by pentagastrin in mice; format: in vivo; details: 21 days
Description: Inhibitory effect on the rate of growth of tumorous colic cells induced by pentagastrin
Gastrin has a trophic effect on the digestive epithelium.
Upon the basis of this premise, it was wished to investigate whether the gastrin-specific antagonists of the invention could antagonise the growth of experimentally-induced gastrointestinal tumours.
Male mice weighing 20-25 g were inoculated subcutaneously in the interscapular region with a suspension of 8×10^4 tumour cells of a mouse colic adenocarcinoma.
After 21 days, the animals were killed and the fundic mucosa and the tumours were removed, weighed and extracted to determine the DNA.

[3] = pentagastrin + C-5 3 mg/Kg i.p. twice a day
[4] = pentagastrin + C-5 10 mg/Kg i.p. twice a day

O=C(O)CC[C@@H](NC(=O)c1cc(Cl)cc(Cl)c1)C(=O)N1CCC2(CCCC2)CC1 [Compound C5]
LD50 [1]: ~400 mg/kg
selectivity ratio [1]: ~25
Anti-CCK activity IC50 [2]: 34.8 µg/mL
Effect on the fundic mucosa (in words) (fundic mucosa; mice): can inhibit both the aforementioned trophic effects of pentagastrin in a significant and dose-dependent manner
Fundic DNA, Mean ± SD (fundic mucosa; [3]): 0.268 ± 0.03 mg
Weight of the mucosa fundica, Mean ± SD (fundic mucosa; [3]): 23.85 ± 3.48 mg
Fundic DNA, Mean ± SD (fundic mucosa; [4]): 0.252 ± 0.03 mg
Weight of the mucosa fundica, Mean ± SD (fundic mucosa; [4]): 18.90 ± 2.54 mg
